# Experimental data: patent publication US9995734B2, “Human T cell line assay for evaluating the immunologic identity of glatiramer acetate preparations” (Mylan Inc., priority 2013, dated 2018)
# Marks after values point to notes of the source that are not given here.
# Columns and labels:
# Assay type in all cases: cell-based, human
# [1] = test system: Donor 1 GMA Expanded T-Cell Lines (222-AG11, 222-AG12, 222-BA11, 222-BC11); assay: ATP proliferation assay (CellTiter Glo), Donor 1 GMA expanded T-cell lines, incl. reactivity to non-canonical GA peptides; details: T-cell line 222-AG12, autologous B-LCL
# Outline: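 GMA-expanded T-cell lines from Donor 1 restimulated with GMA (0–100 μg/mL), or with non-canonical GA peptides, COP and GMA (0–30 μg/mL; T cells 2×10^5 cells/mL). Mitomycin C-treated autologous PBMC or B-LCL served as APC. Proliferation read by CellTiter-Glo ATP luminescence after 3 days at 37° C.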
# Donor 3 GMA T-Cell Lines = assay: ATP proliferation assay (CellTiter Glo), Donor 3 GMA T-cell lines, incl. reactivity to non-canonical GA peptides
# Donor 3 COP T-Cell Lines = assay: ATP proliferation assay (CellTiter Glo), Donor 3 COP T-cell lines, incl. reactivity to non-canonical GA peptides; details: for ATP proliferation assay: 10 μg/mL, Day 14
substance,measurement,setting,value
glatiramer acetate [COP],"Proliferation (luminescent ATP assay), Mean",[1]; 1 ug/mL antigen,10056 RLU
same,"Proliferation (luminescent ATP assay), Mean",[1]; 10 ug/mL antigen,233083 RLU
same,"Proliferation (luminescent ATP assay), Mean",[1]; 30 ug/mL antigen,227055 RLU
same,response in proliferation assay,"Donor 3 GMA T-Cell Lines; 165-B5G, 165-D8G, 165-E7G, 165-F5G, Day 56, 0, 1, 5, 10, 100 μg/mL, GMA and COP responses comparable",responded well
same,"Proliferation (luminescent ATP assay), Mean","Donor 3 GMA T-Cell Lines; T-cell line 165-05G, 1 μg/mL antigen, Day 50 of culturing, No Antigen Value 2149",6791 RLU
same,"Proliferation (luminescent ATP assay), Mean","Donor 3 GMA T-Cell Lines; T-cell line 165-05G, 3 μg/mL antigen, Day 50 of culturing, No Antigen Value 2149",42584 RLU
same,"Proliferation (luminescent ATP assay), Mean","Donor 3 GMA T-Cell Lines; T-cell line 165-05G, 10 μg/mL antigen, Day 50 of culturing, No Antigen Value 2149",56893 RLU
same,"Proliferation (luminescent ATP assay), Mean","Donor 3 GMA T-Cell Lines; T-cell line 165-05G, 30 μg/mL antigen, Day 50 of culturing, No Antigen Value 2149",55001 RLU
same,"Mean, ATP proliferation assay","Donor 3 GMA T-Cell Lines; T-cell line 165-B2G, 1 μg/mL, Day 40",3779
same,"Mean, ATP proliferation assay","Donor 3 GMA T-Cell Lines; T-cell line 165-B2G, 3 μg/mL, Day 40",11983
same,"Mean, ATP proliferation assay","Donor 3 GMA T-Cell Lines; T-cell line 165-B2G, line COP 10 μg/mL, footnote: well contained 3 μg/mL COP, Day 40",10980*
same,"Proliferation (luminescent ATP assay), Mean","Donor 3 GMA T-Cell Lines; T-cell line 165-B5G, 1 μg/mL antigen, Day 81 of culturing, No Antigen Value 2432",6275 RLU
same,"Mean, ATP proliferation assay","Donor 3 GMA T-Cell Lines; T-cell line 165-B5G, 1 μg/mL, Day 40",3672
same,"Proliferation (luminescent ATP assay), Mean","Donor 3 GMA T-Cell Lines; T-cell line 165-B5G, 3 μg/mL antigen, Day 81 of culturing, No Antigen Value 2432",7499 RLU
same,"Mean, ATP proliferation assay","Donor 3 GMA T-Cell Lines; T-cell line 165-B5G, 3 μg/mL, Day 40",3673
same,"Proliferation (luminescent ATP assay), Mean","Donor 3 GMA T-Cell Lines; T-cell line 165-B5G, 10 μg/mL antigen, Day 81 of culturing, No Antigen Value 2432",10914 RLU
same,"Mean, ATP proliferation assay","Donor 3 GMA T-Cell Lines; T-cell line 165-B5G, 10 μg/mL, Day 40",14282
same,"Proliferation (luminescent ATP assay), Mean","Donor 3 GMA T-Cell Lines; T-cell line 165-B5G, 30 μg/mL antigen, Day 81 of culturing, No Antigen Value 2432",13974 RLU
same,"Mean, ATP proliferation assay","Donor 3 GMA T-Cell Lines; T-cell line 165-C4G, 1 μg/mL, Day 40",3143
same,"Mean, ATP proliferation assay","Donor 3 GMA T-Cell Lines; T-cell line 165-C4G, 3 μg/mL, Day 40",3959
same,"Mean, ATP proliferation assay","Donor 3 GMA T-Cell Lines; T-cell line 165-C4G, line COP 10 μg/mL, footnote: well contained 3 μg/mL COP, Day 40",3717*
same,"Mean, ATP proliferation assay","Donor 3 GMA T-Cell Lines; T-cell line 165-C5G, 1 μg/mL, Day 40",12667
same,"Mean, ATP proliferation assay","Donor 3 GMA T-Cell Lines; T-cell line 165-C5G, 3 μg/mL, Day 40",24835
same,"Mean, ATP proliferation assay","Donor 3 GMA T-Cell Lines; T-cell line 165-C5G, 10 μg/mL, Day 40",47537
same,"Mean, ATP proliferation assay","Donor 3 GMA T-Cell Lines; T-cell line 165-C8G, 1 μg/mL, tested with the Donor 3 COP lines of Table 25",400 RLU
same,"Mean, ATP proliferation assay","Donor 3 GMA T-Cell Lines; T-cell line 165-C8G, 3 μg/mL, tested with the Donor 3 COP lines of Table 25",4821 RLU
same,"Mean, ATP proliferation assay","Donor 3 GMA T-Cell Lines; T-cell line 165-C8G, 10 μg/mL, tested with the Donor 3 COP lines of Table 25",22961 RLU
same,"Mean, ATP proliferation assay","Donor 3 GMA T-Cell Lines; T-cell line 165-D8G, 1 μg/mL, Day 40",8088
same,"Mean, ATP proliferation assay","Donor 3 GMA T-Cell Lines; T-cell line 165-D8G, 3 μg/mL, Day 40",8722
same,"Mean, ATP proliferation assay","Donor 3 GMA T-Cell Lines; T-cell line 165-D8G, 10 μg/mL, Day 40",28872
same,"Proliferation (luminescent ATP assay), Mean","Donor 3 GMA T-Cell Lines; T-cell line 165-E7G, 1 μg/mL antigen, Day 81 of culturing, No Antigen Value 2145",4217 RLU
same,"Mean, ATP proliferation assay","Donor 3 GMA T-Cell Lines; T-cell line 165-E7G, 1 μg/mL, Day 40",3794
same,"Proliferation (luminescent ATP assay), Mean","Donor 3 GMA T-Cell Lines; T-cell line 165-E7G, 3 μg/mL antigen, Day 81 of culturing, No Antigen Value 2145",5366 RLU
same,"Mean, ATP proliferation assay","Donor 3 GMA T-Cell Lines; T-cell line 165-E7G, 3 μg/mL, Day 40",4147
same,"Proliferation (luminescent ATP assay), Mean","Donor 3 GMA T-Cell Lines; T-cell line 165-E7G, 10 μg/mL antigen, Day 81 of culturing, No Antigen Value 2145",7619 RLU
same,"Mean, ATP proliferation assay","Donor 3 GMA T-Cell Lines; T-cell line 165-E7G, 10 μg/mL, Day 40",12565
same,"Proliferation (luminescent ATP assay), Mean","Donor 3 GMA T-Cell Lines; T-cell line 165-E7G, 30 μg/mL antigen, Day 81 of culturing, No Antigen Value 2145",7161 RLU
same,"Proliferation (luminescent ATP assay), Mean","Donor 3 GMA T-Cell Lines; T-cell line 165-E9G, 1 μg/mL antigen, Day 50 of culturing, No Antigen Value 1742",1999 RLU
same,"Mean, ATP proliferation assay","Donor 3 GMA T-Cell Lines; T-cell line 165-E9G, 1 μg/mL, Day 40",3216
same,"Proliferation (luminescent ATP assay), Mean","Donor 3 GMA T-Cell Lines; T-cell line 165-E9G, 3 μg/mL antigen, Day 50 of culturing, No Antigen Value 1742",5538 RLU
same,"Mean, ATP proliferation assay","Donor 3 GMA T-Cell Lines; T-cell line 165-E9G, 3 μg/mL, Day 40",5584
same,"Mean, ATP proliferation assay","Donor 3 GMA T-Cell Lines; T-cell line 165-E9G, 10 μg/mL, Day 40",25454
same,"Proliferation (luminescent ATP assay), Mean","Donor 3 GMA T-Cell Lines; T-cell line 165-E9G, 30 μg/mL antigen, Day 50 of culturing, No Antigen Value 1742",38286 RLU
same,"Proliferation (luminescent ATP assay), Mean","Donor 3 GMA T-Cell Lines; T-cell line 165-E9G, 10 μpg/mL antigen, Day 50 of culturing, No Antigen Value 1742",38813 RLU
same,"Mean, ATP proliferation assay","Donor 3 GMA T-Cell Lines; T-cell line 165-F2G, 1 μg/mL, Day 40",1700
same,"Mean, ATP proliferation assay","Donor 3 GMA T-Cell Lines; T-cell line 165-F2G, 3 μg/mL, Day 40",1332
same,"Mean, ATP proliferation assay","Donor 3 GMA T-Cell Lines; T-cell line 165-F2G, 10 μg/mL, Day 40",1554
same,"Mean, ATP proliferation assay","Donor 3 GMA T-Cell Lines; T-cell line 165-F5G, 1 μg/mL, Day 40",4332
same,"Mean, ATP proliferation assay","Donor 3 GMA T-Cell Lines; T-cell line 165-F5G, 3 μg/mL, Day 40",6099
same,"Mean, ATP proliferation assay","Donor 3 GMA T-Cell Lines; T-cell line 165-F5G, 10 μg/mL, Day 40",19498
same,"Mean, ATP proliferation assay","Donor 3 GMA T-Cell Lines; T-cell line 165-F8G, 1 μg/mL, Day 40",3690
same,"Mean, ATP proliferation assay","Donor 3 GMA T-Cell Lines; T-cell line 165-F8G, 3 μg/mL, Day 40",3184
same,"Mean, ATP proliferation assay","Donor 3 GMA T-Cell Lines; T-cell line 165-F8G, 10 μg/mL, Day 40",10663
same,"Proliferation (luminescent ATP assay), Mean","Donor 3 GMA T-Cell Lines; T-cell line 165-F10G, 1 μg/mL antigen, Day 50 of culturing, No Antigen Value 3752",6350 RLU
same,"Mean, ATP proliferation assay","Donor 3 GMA T-Cell Lines; T-cell line 165-F10G, 1 μg/mL, Day 40",8427
same,"Proliferation (luminescent ATP assay), Mean","Donor 3 GMA T-Cell Lines; T-cell line 165-F10G, 3 μg/mL antigen, Day 50 of culturing, No Antigen Value 3752",40495 RLU
same,"Proliferation (luminescent ATP assay), Mean","Donor 3 GMA T-Cell Lines; T-cell line 165-F10G, 10 μg/mL antigen, Day 50 of culturing, No Antigen Value 3752",58726 RLU
same,"Mean, ATP proliferation assay","Donor 3 GMA T-Cell Lines; T-cell line 165-F10G, 10 μg/mL, Day 40",29986
same,"Proliferation (luminescent ATP assay), Mean","Donor 3 GMA T-Cell Lines; T-cell line 165-F10G, 30 μg/mL antigen, Day 50 of culturing, No Antigen Value 3752",60488 RLU
same,"Mean, ATP proliferation assay","Donor 3 GMA T-Cell Lines; T-cell line 165-F10G, line COP 3 μg/mL, footnote: well contained 10 μg/mL COP, Day 40",31303**
same,"Proliferation (luminescent ATP assay), Mean","Donor 3 GMA T-Cell Lines; T-cell line 165-H11G, 1 μg/mL antigen, Day 50 of culturing, No Antigen Value 1485",8610 RLU
same,"Mean, ATP proliferation assay","Donor 3 GMA T-Cell Lines; T-cell line 165-H11G, 1 μg/mL, Day 40",9102
same,"Proliferation (luminescent ATP assay), Mean","Donor 3 GMA T-Cell Lines; T-cell line 165-H11G, 3 μg/mL antigen, Day 50 of culturing, No Antigen Value 1485",37551 RLU
same,"Mean, ATP proliferation assay","Donor 3 GMA T-Cell Lines; T-cell line 165-H11G, 3 μg/mL, Day 40",15637
same,"Proliferation (luminescent ATP assay), Mean","Donor 3 GMA T-Cell Lines; T-cell line 165-H11G, 10 μg/mL antigen, Day 50 of culturing, No Antigen Value 1485",50044 RLU
same,"Mean, ATP proliferation assay","Donor 3 GMA T-Cell Lines; T-cell line 165-H11G, 10 μg/mL, Day 40",43786
same,"Proliferation (luminescent ATP assay), Mean","Donor 3 GMA T-Cell Lines; T-cell line 165-H11G, 30 μg/mL antigen, Day 50 of culturing, No Antigen Value 1485",32898 RLU
same,responsiveness in proliferation assay,"Donor 3 GMA T-Cell Lines; all 8 Donor 3 GMA cell lines tested, Day 32, 10 μg/mL (Table 19)",responsive
same,responsiveness in proliferation assay,"Donor 3 GMA T-Cell Lines; eleven of the 12 cell lines (all but F2G), Day 40, 1, 3 or 10 μg/mL (Table 21)",responsive
same,ratio of proliferation after stimulation with COP to proliferation in response to the APC control,Donor 3 COP T-Cell Lines,greater than 3.0
same,ATP proliferation assay,"Donor 3 COP T-Cell Lines; 165-B6C, control 14966",77564 RLU
same,ATP proliferation assay,"Donor 3 COP T-Cell Lines; 165-B10C, control 10604",54779 RLU
same,ATP proliferation assay,"Donor 3 COP T-Cell Lines; 165-C4C, control 23510",108089 RLU
same,ATP proliferation assay,"Donor 3 COP T-Cell Lines; 165-C7C, control 12707",63491 RLU
same,ATP proliferation assay,"Donor 3 COP T-Cell Lines; 165-C9C, control 22840",113199 RLU
same,response in ATP proliferation assay,"Donor 3 COP T-Cell Lines; 165-D2C, 165-C7C, 165-C4C, Day 39, three concentrations (Table 24)",responded comparably
